This experiment deals with drug resistant clinical M. tuberculosis isolates. Type of experiment: cell-based, Mycobacterium tuberculosis. The settings on record: 29 clinical isolates, 18 MDR and 5 XDR. More on the design: unit not given beside the values.

Regarding `CN[C@@H]1[C@H](O)[C@H](NC)[C@H]2O[C@]3(O)[C@H](O[C@@H]2[C@H]1O)O[C@H](C)C[C@H]3NC(=O)Cc1ccc(O)cn1.Cl.Cl.Cl` [Compound 39, 3′-Dihydro-3′-deoxy-3′(R)-(5-hydroxypyridin-2-yl)acetylamino spectinomycin trihydrochloride], the MIC range is 1.56–3.13.

With `Br.Br.Br.CN[C@@H]1[C@H](O)[C@H](NC)[C@H]2O[C@]3(O)[C@H](O[C@@H]2[C@H]1O)O[C@H](C)C[C@H]3NC(=O)Cc1cc(Cl)c(F)cn1` [Compound 49, 3′-Dihydro-3′-deoxy-3′(R)-(4-chloro-5-fluoropyridin-2-yl)acetylamino spectinomycin trihydrobromide], the MIC range is 0.39–1.56.

The values are drawn from publication PMC5493200 (ACS infectious diseases, 2016).
